The text below walks through data of patent US9815796B2 (Merck Sharp & Dohme Corp., priority 2013, dated 2017).

The test deals with human PDE2A1 (Homo sapiens (Human), UniProt O00408). The test is described as follows: IMAP FP PDE selectivity panel, human PDE2A1. To be noted: Human PDE2, Lab B; read-out: Human PDE2 Ki (nM) - Lab B. In kind it is biochemical. The procedure, abridged:
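IMAP FP format: substrate 50 nM FAM-cAMP plus 1000 nM cGMP, enzyme (insect-cell GST-tagged human PDE2A1) at ~20% conversion, 60 min reaction at room temperature. Apparent inhibition constants calculated from parallel/perpendicular fluorescence with KM 10,000 nM.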

human PDE2A1, sequence (O00408 other isoform, or with tags, fused parts or gaps): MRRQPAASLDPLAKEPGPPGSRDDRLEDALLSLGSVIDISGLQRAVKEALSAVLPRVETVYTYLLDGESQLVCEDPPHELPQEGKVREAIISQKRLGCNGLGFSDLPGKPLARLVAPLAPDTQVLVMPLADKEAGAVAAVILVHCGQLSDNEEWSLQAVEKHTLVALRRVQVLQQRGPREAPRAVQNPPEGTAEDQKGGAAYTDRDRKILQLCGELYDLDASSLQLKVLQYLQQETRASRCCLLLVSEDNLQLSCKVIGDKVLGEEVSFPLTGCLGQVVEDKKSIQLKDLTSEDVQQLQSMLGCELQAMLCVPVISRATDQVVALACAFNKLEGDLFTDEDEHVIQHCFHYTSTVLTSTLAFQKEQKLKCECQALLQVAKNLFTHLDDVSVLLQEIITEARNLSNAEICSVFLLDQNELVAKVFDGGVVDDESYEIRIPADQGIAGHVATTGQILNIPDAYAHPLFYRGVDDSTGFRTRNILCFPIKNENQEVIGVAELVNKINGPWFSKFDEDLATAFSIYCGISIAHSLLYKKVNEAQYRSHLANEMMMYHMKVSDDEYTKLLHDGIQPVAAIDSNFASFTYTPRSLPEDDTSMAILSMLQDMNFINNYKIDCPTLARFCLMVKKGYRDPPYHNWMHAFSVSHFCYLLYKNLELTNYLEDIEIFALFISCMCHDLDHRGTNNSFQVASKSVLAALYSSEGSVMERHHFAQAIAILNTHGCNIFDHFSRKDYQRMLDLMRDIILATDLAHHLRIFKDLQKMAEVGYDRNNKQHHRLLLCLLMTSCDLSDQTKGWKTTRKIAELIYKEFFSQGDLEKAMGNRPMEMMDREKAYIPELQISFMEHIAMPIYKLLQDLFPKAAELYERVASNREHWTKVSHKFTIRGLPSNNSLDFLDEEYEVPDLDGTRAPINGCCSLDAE

A word on the Ki: it is a measure of affinity in units of concentration, obtained from inhibition or displacement. As for `CC(C)(NC(=O)c1cc(=O)[nH]c(-c2ncccn2)n1)c1ccc(C(F)(F)F)cc1F` [Example 573, N-{1-[2-fluoro-4-(trifluoromethyl)phenyl]-1-methylethyl}-6-oxo-1,6-dihydro-2,2′-bipyrimidine-4-carboxamide], the Ki was 88 nM.
The same measure for `Cc1nc(C(=O)N[C@]2(c3ccc(C(C)C)cc3)C[C@H]2C)cc(=O)[nH]1` (single isomer, unassigned) [Example 665, 2-methyl-N-{2-methyl-1-[4-(1-methylethyl)phenyl]cyclopropyl}-6-oxo-1,6-dihydropyrimidine-4-carboxamide]: 4.95 nM.
The same measure for `Cc1nc(C(=O)NC(C)(C)c2cc(F)c(C(F)(F)F)cc2Cl)cc(=O)[nH]1` [Example 659, N-{1-[2-chloro-5-fluoro-4-(trifluoromethyl)phenyl]-1-methylethyl}-2-methyl-6-oxo-1,6-dihydropyrimidine-4-carboxamide]: 139 nM; for `CC1([C@@H](NC(=O)c2cc(=O)[nH]c(-c3ncccn3)n2)c2ccc(OC(F)F)cc2)CC1` [Example 584, N-[(R)-[4-(difluoromethoxy)phenyl](1-methylcyclopropyl)methyl]-6-oxo-1,6-dihydro-2,2′-bipyrimidine-4-carboxamide]: 36 nM.
With `Cc1nc(C(=O)N[C@@H](c2ccc(C(F)F)cc2F)C(C)(C)C)cc(=O)[nH]1` [Example 661, N-{(1R)-1-[4-(difluoromethyl)-2-fluorophenyl]-2,2-dimethylpropyl}-2-methyl-6-oxo-1,6-dihydropyrimidine-4-carboxamide] the figure was 6.6 nM.
Regarding `CC(C)(C)[C@@H](NC(=O)c1cc(=O)[nH]c(-c2ccccc2)n1)c1ccc(SC(F)(F)F)cc1` [Example 541, N-[(1R)-2,2-dimethyl-1-{4-[(trifluoromethyl)sulfanyl]phenyl}propyl]-6-oxo-2-phenyl-1,6-dihydropyrimidine-4-carboxamide], the Ki is 1.3 nM.
With `CC1(c2ccc(C(NC(=O)c3cc(=O)[nH]c(C4CC4)n3)C(C)(C)C)cc2F)CC1` (single isomer, unassigned) [Example 712, (S)- or (R)-2-cyclopropyl-N-(1-(3-fluoro-4-(1-methylcyclopropyl)phenyl)-2,2-dimethylpropyl)-6-oxo-1,6-dihydropyrimidine-4-carboxamide] the figure was 237 nM; with `Cc1nc(C(=O)N[C@@H](c2ccc(C(F)F)cc2)C(C)(C)C)cc(=O)[nH]1` [Example 644, N-{(1R)-1-[4-(difluoromethyl)phenyl]-2,2-dimethylpropyl}-2-methyl-6-oxo-1,6-dihydropyrimidine-4-carboxamide], 7.3 nM.
With `CC1(c2ccc(C(NC(=O)c3cc(=O)[nH]c(-c4ccccc4)n3)C(C)(C)C)cc2F)CC1` (single isomer, unassigned) [Example 714, (S)- or (R)-N-(1-(3-fluoro-4-(1-methylcyclopropyl)phenyl)-2,2-dimethylpropyl)-6-oxo-2-phenyl-1,6-dihydropyrimidine-4-carboxamide] the figure was about 1820 nM; with `Cc1nc(C(=O)NC(C)(C)c2ccc(C(F)(F)F)cc2C)cc(=O)[nH]1` [Example 595, 2-methyl-N-{1-methyl-1-[2-methyl-4-(trifluoromethyl)phenyl]ethyl}-6-oxo-1,6-dihydropyrimidine-4-carboxamide], 37 nM; with `Cc1nc(C(=O)NC2(c3ccc(C(F)(F)F)cc3)CC2(C)C)cc(=O)[nH]1` (stereo not shown) [Example 681, N-(2,2-dimethyl-1-(4-(trifluoromethyl)phenyl)cyclopropyl)-2-methyl-6-oxo-1,6-dihydropyrimidine-4-carboxamide], 7 nM.
With `CCc1nc(C(=O)N[C@@H](c2ccc(C(F)(F)F)c(F)c2)C2CC2)cc(=O)[nH]1` [Example 603, N-{(R)-cyclopropyl[3-fluoro-4-(trifluoromethyl)phenyl]methyl}-2-ethyl-6-oxo-1,6-dihydropyrimidine-4-carboxamide] the figure was 7.2 nM; with `Cc1nc(C(=O)N[C@@H](c2ccc(C3CC3)cc2)C2(C)CC2)cc(=O)[nH]1` [Example 658, N-[(R)-(4-cyclopropylphenyl)(1-methylcyclopropyl)methyl]-2-methyl-6-oxo-1,6-dihydropyrimidine-4-carboxamide], 3.8 nM.
Consider `CC(C)(C)c1ccc(C2(NC(=O)c3cc(=O)[nH]c(-c4ncccn4)n3)CC2)cc1` [Example 575, N-[1-(4-tert-butylphenyl)cyclopropyl]-6-oxo-1,6-dihydro-2,2′-bipyrimidine-4-carboxamide], for which the Ki was 65 nM.
In the case of `CC(C)[C@@H](NC(=O)c1cc(=O)[nH]c(-c2ccccc2)n1)c1ccc(OC(F)F)cc1` [Example 543, N-{(1R)-1-[4-(difluoromethoxy)phenyl]-2-methylpropyl}-6-oxo-2-phenyl-1,6-dihydropyrimidine-4-carboxamide], the inhibitory constant (Ki) amounted to 5.2 nM.
With `CC(C)[C@@H](NC(=O)c1cc(=O)[nH]c(-c2ncccn2)n1)c1ccc2c(c1)OC(F)(F)O2` [Example 592, N-[(1R)-1-(2,2-difluoro-1,3-benzodioxol-5-yl)-2-methylpropyl]-6-oxo-1,6-dihydro-2,2′-bipyrimidine-4-carboxamide] the figure was 15 nM; with `CCC(C)(NC(=O)c1cc(=O)[nH]c(C)n1)c1ccc(C(F)(F)F)cc1F` (single isomer, unassigned) [Example 718, (S)- or (R)-N-(2-(2-fluoro-4-(trifluoromethyl)phenyl)butan-2-yl)-2-methyl-6-oxo-1,6-dihydropyrimidine-4-carboxamide], 39 nM; with `C[C@](CO)(NC(=O)c1cc(=O)[nH]c(-c2ccccc2)n1)c1ccc(C(F)(F)F)cc1` [Example 642, N-{(1S)-2-hydroxy-1-methyl-1-[4-(trifluoromethyl)phenyl]ethyl}-6-oxo-2-phenyl-1,6-dihydropyrimidine-4-carboxamide], 4.8 nM.
With `Cc1cnc(-c2nc(C(=O)N[C@H](C)c3ccc(C(F)(F)F)cc3)cc(=O)[nH]2)o1` [Example 676, (R)-2-(5-methyloxazol-2-yl)-6-oxo-N-(1-(4-(trifluoromethyl)phenyl)ethyl)-1,6-dihydropyrimidine-4-carboxamide] the figure was 478 nM.
With `CCc1nc(C(=O)NC(C)(C)c2ccc(C(F)(F)F)cc2)cc(=O)[nH]1` [Example 600, 2-ethyl-N-{1-methyl-1-[4-(trifluoromethyl)phenyl]ethyl}-6-oxo-1,6-dihydropyrimidine-4-carboxamide] the figure was 21 nM; with `Cc1nc(C(=O)NC(C)(C)c2ccc(OC(F)(F)F)cc2F)cc(=O)[nH]1` [Example 597, N-{1-[2-fluoro-4-(trifluoromethoxy)phenyl]-1-methylethyl}-2-methyl-6-oxo-1,6-dihydropyrimidine-4-carboxamide], 137 nM; with `Cc1nc(C(=O)N[C@@H](c2ccc(C(F)(F)F)c(F)c2)C(C)(C)O)cc(=O)[nH]1` [Example 723, N-{(1S)-1-[3-fluoro-4-(trifluoromethyl)phenyl]-2-hydroxy-2-methylpropyl}-2-methyl-6-oxo-1,6-dihydropyrimidine-4-carboxamide], 8.6 nM.
`CC(NC(=O)c1cc(=O)[nH]c(C2CC2)n1)c1ccc(C2(C(F)(F)F)CC2)cc1` (single isomer, unassigned) [Example 689, (R)- or (S)-2-cyclopropyl-6-oxo-N-(1-(4-(1-(trifluoromethyl)cyclopropyl)phenyl)-ethyl)-1,6-dihydropyrimidine-4-carboxamide]: the Ki is 67 nM.
On to `Cc1nc(C(=O)N[C@@H](c2ccc(C3(C)CC3)cc2)C(C)C)cc(=O)[nH]1` [Example 532, 2-methyl-N-{(1R)-2-methyl-1-[4-(1-methylcyclopropyl)phenyl]propyl}-6-oxo-1,6-dihydropyrimidine-4-carboxamide], for which the Ki is 16 nM.
The same measure for `O=C(N[C@@H]1COCc2cc(C(F)(F)F)ccc21)c1cc(=O)[nH]c(-c2ccccc2)n1` [Example 551, 6-oxo-2-phenyl-N-[(4S)-7-(trifluoromethyl)-3,4-dihydro-1H-isochromen-4-yl]-1,6-dihydropyrimidine-4-carboxamide]: 157 nM; for `Cc1nc(C(=O)N[C@@H](c2ccc3c(c2)OC(F)(F)O3)C2(C)CC2)cc(=O)[nH]1` [Example 634, N-[(R)-(2,2-difluoro-1,3-benzodioxol-5-yl)(1-methylcyclopropyl)methyl]-2-methyl-6-oxo-1,6-dihydropyrimide-4-carboxamide]: 29 nM.
The same measure for `O=C(N[C@@H](c1ccc(C2CC2)c(F)c1)C1CC1)c1cc(=O)[nH]c(-c2ncccn2)n1` [Example 581, N-[(R)-cyclopropyl(4-cyclopropyl-3-fluorophenyl)methyl]-6-oxo-1,6-dihydro-2,2′-bipyrimidine-4-carboxamide]: 13 nM; for `CC(C)[C@@H](NC(=O)c1cc(=O)[nH]c(-c2ccccc2)n1)c1ccc(C2(C)CC2)cc1` [Example 533, N-{(1R)-2-methyl-1-[4-(1-methylcyclopropyl)phenyl]propyl}-6-oxo-2-phenyl-1,6-dihydropyrimidine-4-carboxamide]: 8 nM; for `CCc1nc(C(=O)NC(C)(C)c2ccc(C(F)(F)F)cc2Cl)cc(=O)[nH]1` [Example 608, N-{1-[2-chloro-4-(trifluoromethyl)phenyl]-1-methylethyl}-2-ethyl-6-oxo-1,6-dihydropyrimidine-4-carboxamide]: 3.2 nM.
The same measure for `O=C(NC1(c2ccc(CC(F)(F)F)cc2)CC1)c1cc(=O)[nH]c(-c2ncccn2)n1` [Example 578, 6-oxo-N-{1-[4-(2,2,2-trifluoroethyl)phenyl]cyclopropyl}-1,6-dihydro-2,2′-bipyrimidine-4-carboxamide]: 104 nM; for `CC(C)(C)[C@@H](NC(=O)c1cc(=O)[nH]c(-c2ncccn2)n1)c1ccc(C(F)(F)F)cc1F` [Example 565, N-{(1R)-1-[2-fluoro-4-(trifluoromethyl)phenyl]-2,2-dimethylpropyl}-6-oxo-1,6-dihydro-2,2′-bipyrimidine-4-carboxamide]: 7 nM.
